Earlier results in patent US20170326147A1, “INHIBITING BLOOD PRESSURE DROP IN THE TREATMENT OF ERECTILE DYSFUNCTION” (FORMUREX, INC., priority 2014, published 2017).
Counter-ions that a name gives are not always drawn.

Tests used:
plasma proteins = conditions: independent of total drug concentration

bound to plasma proteins (plasma proteins) | Tmax average, fasting subjects (fasting) | delay of mean Tmax by food in the stomach (fed) | bioavailability (mean absolute), oral administration (oral, absorption through the digestive tract) | SMILES
approximately 96% | – | – | – | CCCc1nn(C)c2c(=O)[nH]c(-c3cc(S(=O)(=O)N4CCNCC4)ccc3OCC)nc12 [N-desmethyl metabolite, N-desmethyl sildenafil]
approximately 96% | about 1 hr | about 1.1 hr | about 40% | CCCc1nn(C)c2c(=O)[nH]c(-c3cc(S(=O)(=O)N4CCN(C)CC4)ccc3OCC)nc12 [sildenafil citrate]
